21 molecules from patent US20230365959A1, “METHOD FOR IMPROVING THE STABILITY OF A COMPOSITION COMPRISING A FLAVIN-DEPENDENT LACTATE DEHYDROGENASE” (KIKKOMAN CORPORATION, priority 2020, published 2023) can be followed below.

The first assay relates to lactate dehydrogenase from Pichia kudriavzevii (PkLDH). Briefly: Thermal stability of PkLDH (residual activity ratio after heat treatment, potassium phosphate buffer). The assay is classed as biochemical. Particulars: PkLDH 2 U/mL; added compound 300 mM; 150 mM potassium phosphate buffer pH 7.5, 0.15% BSA; 55°C for 15 minutes. As for the experimental part:
Thermal stability of LDH can be evaluated by heating LDH at a given temperature for a given time and comparing the activity thereof before and after heating. […] The LDH activity of an LDH solution which is allowed to stand still on ice without heating is taken as 100 and the LDH activity after heating is calculated and, the residual activity ratio (ratio of remaining activity) (%) can be determined.
More specifically, the residual activity ratio (%) can be obtained by measuring LDH activity value (a) of a solution before heat treatment or before long-term storage and LDH activity value (b) of a solution after heat treatment or after long-term storage and calculating ((b)/(a)×100).
Using the purified PkLDH preparation obtained above, the residual activity ratio (%) in the presence and absence of an LDH stabilizer were compared in accordance with the LDH thermal stability evaluation method mentioned previously, and in this manner, a stabilizer was searched.
(§1) The thermal stability of LDH was evaluated by heating LDH at a given temperature for a given time and comparing the activities before and after heating. […] Further, LDH activity of an LDH solution allowed to stand still on ice without any heat treatment was measured. Based on the activity of this case without any heat treatment taken as 100, the activities of LDH solutions after heat treatment were calculated to determine the residual activity ratio (%). More specifically, the residual activity ratio (%) can be obtained by measuring LDH activity value (a) of a solution before heat treatment or before long-term storage, and LDH activity value (b) of a solution after heat treatment or after long-term storage, and then, calculating ((b)/(a)×100).
The degree of LDH stability improving effect of each of the various added compounds was evaluated by preparing an LDH solution by allowing LDH to coexist with each of the various compounds, subjecting the solution to a heat treatment and determining the residual activity ratio (%) of the solution, and evaluating the residual activity (%) by mutually comparing the cases between compounds or comparing the case to a case where no compound was added.
(§2) The activity of LDH was determined in accordance with the following procedure. […] Subsequently, a 30 mM PMS solution (50 μL) and an enzyme sample solution (50 μL) were added to the mixture to initiate a reaction. Absorbance at 520 nm was measured at the time of initiation of the reaction and over time and, the degree of reduction (ΔA520) in absorbance per minute as the enzymatic reaction progresses was obtained and LDH activity was calculated in accordance with the following Mathematical formula 2. Here, LDH activity is expressed by an enzyme (LDH) unit, and 1U is defined as the amount of the enzyme that can reduce 1 μmol DCIP per minute at 37° C. in the presence of 10 mM L-lactate.
The pH of the PkLDH solution was adjusted to be 7.5 after each of the compounds was added. Heat treatment was carried out at 55° C. for 15 minutes. As a comparative example, an LDH solution prepared without adding any compound was subjected to the same experiment. It should be noted that, unless specified otherwise, the reagents used herein were all purchased from Tokyo Chemical Industry Co., Ltd. […]
On to `O=C(O)C(O)Cc1ccccc1` (racemic) [DL-phenyllactic acid, DL-3-phenyllactic acid], for which the “Residual activity ratio (%)” value was 87%.

Regarding `N.N.O=S(=O)(O)O` [Ammonium sulfate, ammonium sulfate], the “Residual activity ratio (%)” value is on record as 54%.

In the case of `O=C(O)C[C@@H](O)C(=O)O` [D-malic acid], the “Residual activity ratio (%)” value is given as 47%.

With `O=C(O)/C=C/C(=O)O` [Fumaric acid, fumaric acid], the “Residual activity ratio (%)” value was 41%.

Consider `O=C(O)/C=C\C(=O)O` [Maleic acid, maleic acid], for which the “Residual activity ratio (%)” value is 45%.

Turning to `O=C(O)CC(=O)C(=O)O` [Oxaloacetic acid, oxaloacetic acid], the “Residual activity ratio (%)” value stood at 45%.

With `N[C@@H](CC(=O)O)C(=O)[O-].[Na+]` [Sodium aspartate, L-sodium aspartate], the “Residual activity ratio (%)” value is 64%.

As to `O=C([O-])CC(O)(CC(=O)[O-])C(=O)[O-].[Na+].[Na+].[Na+]` [Sodium citrate, sodium citrate], the “Residual activity ratio (%)” value turned out to be 42%.

Consider `O=C([O-])[C@H](O)[C@@H](O)[C@H](O)[C@H](O)CO.[Na+]` [Sodium gluconate, sodium gluconate], for which the “Residual activity ratio (%)” value amounted to 57%.

For `O=S(=O)([O-])[O-].[Na+].[Na+]` [Sodium sulfate, sodium sulfate], the “Residual activity ratio (%)” value is 50%.

Consider `O=C(O)CCC(=O)O` [Succinic acid, succinic acid], for which the “Residual activity ratio (%)” value came out at 54%.

Take `OC[C@H]1O[C@@](CO)(O[C@H]2O[C@H](CO)[C@@H](O)[C@H](O)[C@H]2O)[C@@H](O)[C@@H]1O` [Sucrose, sucrose]: the “Residual activity ratio (%)” value was found to be 42%.

With `OC[C@H]1O[C@H](O[C@H]2O[C@H](CO)[C@@H](O)[C@H](O)[C@H]2O)[C@H](O)[C@@H](O)[C@@H]1O` [Trehalose dihydrate, trehalose dihydrate], the “Residual activity ratio (%)” value is listed as 41%.

For DL-leucine acid, the “Residual activity ratio (%)” value amounted to 92%.

The next assay deals with lactate dehydrogenase from Ogataea parapolymorpha (OgLDH). Kind of assay: Thermal stability of OgLDH (residual activity ratio after heat treatment). The assay is classed as biochemical. Particulars: OgLDH 2 U/mL; compound 300 mM; potassium phosphate buffer pH 7.5; 50°C for 15 minutes. Here is the method:
as §1, §2
Stability evaluation tests were conducted to check the improvement effect of malic acid on the stability of various LDHs. […] Each of these diluted enzyme solutions (a mixture of an enzyme and L-malic acid, LDH concentration: 2 U/mL, L-malic acid concentration: 300 mM) was heated in accordance with the thermal-stability evaluation method described in Section 4. More specifically, PkLDH was treated at 55° C., whereas, CaLDH and OgLDH were treated at 50° C. for 15 minutes and then the residual activity ratio (%) was calculated, based on the activity before heating taken as 100. As a comparative example, a sample without adding any L-malic acid in the enzyme diluent was subjected to the same experiment, and the ratio of residual activity in both cases were compared.
Using the purified OgLDH preparation obtained above, the ratios of remaining activities (%) in the presence and absence of a LDH stabilizer were compared in accordance with the LDH thermal stability evaluation method described in Section 4. In this manner, a stabilizer was searched.
The pH of the LDH solution was adjusted to be 7.5 after each of the compounds was added. Heat treatment was carried out at 50° C. for 15 minutes.
Take `N[C@@H](Cc1c[nH]cn1)C(=O)O` [L-histidine]: the “LDH stability improving effect” value is on record as 27%.

Regarding `Cl.NCCCC[C@H](N)C(=O)O` [L-lysine hydrochloride], the “LDH stability improving effect” value is reported as 66%.

For `NCC(=O)O` [glycine], the “LDH stability improving effect” value is on record as 11%.

For a further assay, the system named is lactate dehydrogenase from Pichia kudriavzevii (PkLDH). Kind of assay: Chronoamperometry with printed electrode to which PkLDH plus stabilizer was applied and dried (5 mM mPMS/PBS). In kind it is biochemical. Particulars: added compound 50 mM, +200 mV, 0 mM lactate. As for the experimental part: An enzyme electrode was prepared using the purified PkLDH preparation obtained above and chronoamperometry was carried out. Each of the compounds was added to an enzyme solution in advance and tested whether or not a stabilizing effect of the enzyme during a drying step was exerted. LDH (1 U) solutions comprising compounds in a concentration (0.2% (w/v), 2% (w/v) and 50 mM, respectively) as described in Table 8 were each applied to a screen-printed carbon electrode C110 (manufactured by Metrohm-Dropsens) in an amount of 4 μL and dried at 40° C. for 60 minutes. The same procedure was repeated using an LDH solution without adding any one of the compounds. Each of the electrodes prepared was connected to ALS electrochemical analyzer 814D (manufactured by BAS) using a dedicated connector (DRP-CAC, manufactured by Drop Sense). Subsequently, 100 μL of a 2 mM mPMS/PBS solution was added dropwise to dissolve the dried LDH. The applied voltage was +200 mV (vs Ag/Ag+). An L-sodium lactate solution was added and a response current value 5 seconds after initiation of measurement was recorded. […] Further, in the same manner as above, a 1 U LDH solution comprising 1% polyacrylic acid was applied to a screen printed carbon electrode and dried and then a 2 mM mPMS/PBS solution (100 μL) was added dropwise to dissolve the dried LDH. Then, an L-sodium lactate solution was added such that the final concentration thereof would be 2 to 10 mM, and a response current value 5 seconds after initiation of measurement was recorded.
Chronoamperometry was carried out by changing the concentration of the compound to be added as a stabilizer and the concentration of L-sodium lactate used as a substrate. To an electrode prepared in the same manner as in the preceding Section, 100 μL of a 5 mM mPMS/PBS solution was added dropwise to dissolve the dried LDH. A voltage of +200 mV (vs Ag/Ag+) was applied. An L-sodium lactate solution was added and a response current value 5 seconds after initiation of measurement was recorded.
With `O=C([O-])CC(O)C(=O)[O-].[Na+].[Na+]` [L-sodium malate], the “Current value 5 second later (μA), 0 mM lactate” value was 0.43 μA.

With `O[C@H]1[C@H](O)[C@@H](O)[C@H](O)[C@@H](O)[C@H]1O` [myo-inositol], the “Current value 5 second later (μA), 0 mM lactate” value worked out at 0.23 μA.

Still in this assay, the particulars now being: added compound 50 mM, +200 mV, 5 mM lactate.
`O=C([O-])CC(O)C(=O)[O-].[Na+].[Na+]` [L-sodium malate]: the “Current value 5 second later (μA), 5 mM lactate” value came to 94.4 μA.

Regarding `O[C@H]1[C@H](O)[C@@H](O)[C@H](O)[C@@H](O)[C@H]1O` [myo-inositol], the “Current value 5 second later (μA), 5 mM lactate” value was determined as 104.4 μA.

The next assay deals with lactate dehydrogenase from Candida inconspicua (CaLDH). Briefly: Thermal stability of CaLDH (residual activity ratio after heat treatment). The assay is classed as biochemical. Particulars: CaLDH 2 U/mL; compound 300 mM; potassium phosphate buffer pH 7.5; 50°C for 15 minutes. As for the experimental part: as §1, §2
Stability evaluation tests were conducted to check the improvement effect of malic acid on the stability of various LDHs. […] Each of these diluted enzyme solutions (a mixture of an enzyme and L-malic acid, LDH concentration: 2 U/mL, L-malic acid concentration: 300 mM) was heated in accordance with the thermal-stability evaluation method described in Section 4. More specifically, PkLDH was treated at 55° C., whereas, CaLDH and OgLDH were treated at 50° C. for 15 minutes and then the residual activity ratio (%) was calculated, based on the activity before heating taken as 100. […]
On to `OC[C@H]1O[C@H](O[C@H]2[C@H](O)[C@@H](O)C(O)O[C@@H]2CO)[C@H](O)[C@@H](O)[C@@H]1O` (mixture of isomers) [maltose monohydrate], for which the “improvement effect on the stability of LDH” value is recorded as 5%.

As for `O=C(O)CN(CCN(CC(=O)O)CC(=O)O)CC(=O)O` [ethylenediaminetetraacetic acid], the “improvement effect on the stability of LDH” value came to 56%.

A further assay deals with T1, lactate dehydrogenase from Saccharomyces cereviciae (ScLDH) (Saccharomyces cerevisiae, UniProt P00175).
T1 construct: made in house; host or cells: Escherichia coli BL21 (pKK223-3-ScLDH); unpurified supernatant of crushed cells
T1 sequence (P00175 86-591): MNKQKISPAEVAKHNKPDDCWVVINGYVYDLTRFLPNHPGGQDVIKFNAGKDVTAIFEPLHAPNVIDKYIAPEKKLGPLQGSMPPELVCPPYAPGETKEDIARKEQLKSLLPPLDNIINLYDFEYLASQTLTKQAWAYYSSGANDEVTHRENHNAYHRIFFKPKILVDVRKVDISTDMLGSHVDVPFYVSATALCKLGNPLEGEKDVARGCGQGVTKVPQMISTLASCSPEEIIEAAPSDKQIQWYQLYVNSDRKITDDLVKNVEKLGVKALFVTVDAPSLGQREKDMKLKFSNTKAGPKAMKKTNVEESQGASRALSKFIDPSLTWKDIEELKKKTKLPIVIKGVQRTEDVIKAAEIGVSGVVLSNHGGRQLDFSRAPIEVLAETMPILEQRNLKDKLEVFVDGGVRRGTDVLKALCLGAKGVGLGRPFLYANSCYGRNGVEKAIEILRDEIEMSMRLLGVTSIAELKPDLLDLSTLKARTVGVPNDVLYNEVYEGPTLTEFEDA
Kind of assay: Thermal stability of ScLDH (supernatant of crushed bacterial cells). In kind it is biochemical. Particulars: ScLDH 2 U/mL; compound 300 mM; potassium phosphate buffer pH 7.5; 40°C for 15 minutes. Here is the method:
as §1, §2
Using the supernatant of a solution comprising crushed ScLDH bacterial cells obtained above, the ratios of remaining activities (%) in the presence and absence of a LDH stabilizer were compared in accordance with the LDH thermal stability evaluation method described in Section 4. In this manner, a stabilizer was searched.
The pH of the LDH solution was adjusted to be 7.5 after each of the compounds was added. Heat treatment was carried out at 40° C. for 15 minutes.
Turning to `N.N.O=S(=O)(O)O` [Ammonium sulfate, ammonium sulfate], the “stability improving effect on ScLDH” value worked out at 24%.
